Assay results: patent US6569633B1, “Modulation of the sulfonylurea receptor and calcium in adipocytes for treatment of obesity/diabetes” (Artecel Science, Inc., priority 1998, dated 2003)

Tests used:
Format in all cases: cell-based
human adipocytes [1] = assay: Lipolysis (glycerol release into the culture medium) in human adipocytes
Protocol: FIG. 4. The anti-lipolytic effect of glibenclamide in human adipocytes. Activation of lipolysis in adipocytes is typically measured by release of glycerol into the media. Human adipocytes were treated with 10 μM glibenclamide alone, 10 μM glibenclamide plus 10 μM diazoxide or 10 μM glibenclamide plus 30 μM nitrendipine for 48 hr. Glycerol release was determined as described (19). *p<0.01 vs. Control.
Human adipocytes were examined for changes in lipolysis regulation by measurement of glycerol release into the media. Glycerol was measured by using a standard method (19), although other techniques for measuring glycerol would be equally useful.
Human subcutaneous abdominal adipose tissue was obtained from patients undergoing elective abdominal cosmetic surgery, although other types of adipose tissue, such as mesenteric, retroperitoneal, perirenal, or omental may be useful in identifying these compounds. Preadipocytes are isolated by collagenase treatment of the tissue and cultured adipocytes prepared as described (patent filed; Jan. 29, 1999; Ser. No. 09/240,029). Agents that regulate calcium flux in adipocytes as noted above can mediate lipolysis. Human adipocytes may be cultured in multi-well plates with different treatments between 1 hour or 24 hours as indicated, and glycerol release into the culture medium was determined as an indicator for lipolysis using a one-step enzymatic fluorometric method. The media collected from 1 hr treatments were used directly for glycerol measurements. For 24 hr treatments, media were removed, and cells were washed with Hank's Balanced Salt Solution and incubated in fresh medium for a further 10-60 min. This media were then used for glycerol measurements for 24 hr treatments.
We next investigated the role of adipocyte SUR1 on lipolysis. Lipolysis was measured as follows. Human adipocytes were treated as described below and glycerol release into the culture medium was determined as an indicator for lipolysis using a one step enzymatic fluorometric method (19). After treatment medium was obtained, HClO4 was added for deproteinization.
Agents that regulate calcium flux in adipocytes as noted above can mediate lipolysis. Human adipocytes (1 mL cells/well) were incubated in 24-well plates with different treatments for either 1 hour or 24 hours as indicated, and glycerol release into the culture medium was determined as an indicator for lipolysis using a one-step enzymatic fluorometric method. The media collected from 1 hr treatments were used directly for glycerol measurements. For 24 hr treatments, media were removed, and cells were washed with Hank's Balanced Salt Solution and incubated in fresh medium for a further 30 min. This media were then used for glycerol measurements for 24 hr treatments. After medium was collected, HClO4 was added to give a final concentration of 3% for deproteinization. The sample was centrifuged at 9000×g for 20 min. The supernatant was then collected and neutralized with 10N NaOH. Samples were stored at −80° C. prior to glycerol assay. Cells were collected, homogenized and stored at −80° C. for subsequent total protein correction by a modified Bradford method using Coomassie Blue dye (PIERCE, Rockford, Ill.).

human preadipocytes = assay: Intracellular Ca2+ ([Ca2+]i) response in human preadipocytes
human adipocytes [2] = assay: Triglyceride accumulation in human adipocytes; settings: control 28.2±4.5
Protocol: Human subcutaneous abdominal adipocytes were isolated from healthy patients undergoing cosmetic liposuction using methodology we have previously described. Briefly, the tissue was washed several times with Hank's Balanced Salt Solution, minced into small fragments and digested with type I collagenase (1 mg/mL) in a shaking water bath at 37° C. for 30-40 minutes. Cells were then filtered through a sterile nylon filter (500 μm mesh) and cultured in Dulbecco's Modified Eagle's Medium (DMEM) supplemented with 1% fetal bovine serum, 1% bovine serum albumin, 100 U/mL penicillin, 100 μg/mL streptomycin and 50 μg/mL gentamicin. Cells were subsequently cultured in suspension in sterile polypropylene flasks in a humidified 37° C./5% CO2 incubator. After one day, suspended (floating) adipocytes were transferred to fresh medium and maintained as a thin layer at the top of the culture medium to ensure access to nutrients. The cells were maintained for another 24 hours in this medium and then changed to fresh medium with the addition of SUR agonists (such as glibenclamide) for up to 48 hours with the compounds to be tested. Medium was changed every 24 hours, and cell viability was verified with trypan blue exclusion at the end of representative experiments.
Stimulation of fatty acid synthase and concomitant inhibition of lipolysis results in increased lipid accumulation in human adipocytes. Adipocytes were treated as described above, harvested, and their triglyceride content was analyzed and normalized for protein content. […] Thus, these calcium-stimulated biochemical activities will contribute to the development of adipocyte hypertrophy and potentially obesity.

COc1ccc(Cl)cc1C(=O)NCCc1ccc(S(=O)(=O)NC(=O)NC2CCCCC2)cc1 [glibenclamide] was tested, and the “lipolysis (glycerol release)” value (human adipocytes [1]; 10 μM glibenclamide, 48 hr, control 0.193±0.050) was 0.061±0.009 NADH μM/mg protein, the inhibition at 10 µM (human adipocytes [1]; Homo sapiens, Adipocyte, 10 μM glibenclamide, 48 hr) was 68% and the inhibition in lipolysis (human adipocytes [1]; SUR agonists such as glibenclamide, general description) was 25-70%. For the same compound, the “[Ca2+]i response” value (human preadipocytes) was “did not exhibit any [Ca^2+]i response”, the triglyceride accumulation (human adipocytes [2]; 2 μM glibenclamide (dose-responsive series)) was 46.1±6.3 μg/mg protein and the triglyceride accumulation (human adipocytes [2]; 10 μM glibenclamide (dose-responsive series)) was 58.0±3.4 μg/mg protein.
